Laboratory results reported in patent US11180495B2 (Abbisko Therapeutics Co., Ltd., priority 2017, dated 2021).
Like-named read-outs stand apart in the source and are kept apart here.

How the values were obtained:
[1] = test system: NCI-H1703 human non-small cell lung squamous carcinoma cells; test: PDGFRA-related cell proliferation experiment (Cell Titer Glo); type: cell-based; conditions: 72 h, 3 days, CTG, read-out: Cytological experiment PDGFRA IC50
Protocol: Functional effects of compounds on the proliferation of several cell lines were evaluated by Cell Titer Glo (CTG) studies in the present invention, and effects of the compounds on the proliferation of different cells were evaluated to determine the selectivity degree of the compounds. In the study, M-07e human cytomegalic leukemia cells (cat. No. CBP60791) from Nanjing Kebai Biotechnology Co., Ltd. were cultured in an incubator under conditions of RPMI1640 (Gibco, cat. No. 11875-119), 20% fetal bovine serum (Gibco, 10099-141), human 10 ng/mL GM-CSF granulocyte macrophage colony-stimulating factors (R&D, cat. No. 215-GM-010), 37° C. and 5% CO2; and Kasumi-1 human acute myeloblastic leukemia cells (cat. No. CBP60524) were cultured in an incubator under conditions of RPMI1640 (Gibco, cat. No. 11875-119), 20% fetal bovine serum (Gibco, 10099-141), 37° C. and 5% CO2; NCI-H1703 human non-small cell lung squamous carcinoma cells (cat. No. CBP60115) were cultured in an incubator under conditions of RPMI1640 (Gibco, cat. No. 11875-119), 10% fetal bovine serum (Gibco, 10099-141), 37° C. and 5% CO2; and MV-4-11 human acute monocytic leukemia cells (cat. No. CBP60522) were cultured in an incubator under conditions of IMDM (Invitrogen, cat. No. 12440053), 20% fetal bovine serum (Gibco, 10099-141), 37° C. and 5% CO2. Since ATP is an index for viable cell metabolism, CTG (Promega, #G7573) reagent is a homogeneous detection method for detecting the number of viable cells in the culture by quantifying ATP. Therefore, compound-mediated inhibition for cell proliferation/survival was evaluated by quantifying ATP content in cells, and the specific experimental process was as follows.
II) NCI-H1703 Human Non-Small Cell Lung Squamous Carcinoma Cell • 1.

[2] = test system: M-NFS-60 mouse myeloid leukemia lymphocytes; test: CSF-1R-related cell proliferation experiment (Cell Titer Glo); type: cell-based; conditions: 72 h, M-NFS-60 cells, 3 days, CTG
Protocol: Functional effects of compounds on cell proliferation were evaluated by using Cell Titer Glo (CTG) study in the present invention. M-NFS-60 mouse myeloid leukemia lymphocytes (cat. No. CCBJ078) from National Institutes For Food and Drug Control were cultured in the incubator under conditions of RPMI 1640 (Gibco, cat. No. 11875-119), 10% fetal bovine serum (Gibco, 10099-141), human 10 ng/mL M-CSF macrophage colony-stimulating factor (R&D, cat. No. MVN0915101), 37° C. and 5% CO2. Since ATP is an index for viable cell metabolism, CTG (Promega, #G7573) reagent is a homogeneous detection method for detecting the number of viable cells in the culture by quantifying ATP. Therefore, compound-mediated inhibition for cell proliferation/survival was evaluated by quantifying ATP in cells, and the specific experimental process was as follows: • 1. The cells were plated into a tissue-culture-medium-treated 96-well plate (Costar #3904) with 5,000 cells/well/80 μL fresh culture medium: • 2. 24 hours later, 10 μL culture medium containing testing compound with 10-fold of final concentration was added to each well; • 3. 10 μL of culture medium containing M-CSF with 10-fold of the final concentration was then added to each well: • 4. dosage effect was evaluated by testing the 3-fold serial dilutions of the compound; • 5. after the cells were incubated for 3 days at 37° C. and 5% CO2, the inhibition on cell survival was quantified after 50 μL of CTG was added and the luminescence assay was performed; • 6. the compound concentration leading to half maximal inhibitory (IC50) and the compound concentration leading to absolute half maximal inhibitory (Absolute IC50) were measured by a plate reader (M1000, Tecan) and a four-parameter curve fit in Graphpad Prism 7. D. CSF-1R-Related Cell Proliferation Experiment

[3] = absolute half maximal inhibitory concentration, read-out: Cytological experiment CSF-1R Absolute IC50
[4] = read-out: Cytological experiment CSF1R IC50

Row | IC50 [1] | IC50 [2, 3] | IC50 [2, 4] | IC50 ([2]; Lymphocyte, absolute half maximal inhibitory concentration, read-out: Cytological experiment CSF-1R Absolute IC50) | Structure (SMILES)
1 | 1820 nM | 47.9 nM | 77.9 nM | – | Cc1nc(-c2cnc(NC(C)C)[nH]c2=O)ccc1Cc1c[nH]c2ncc(F)cc12 [Example 5, 5-(5-((5-fluoro-1H-pyrrolo[2,3-b]pyridin-3-yl)methyl)-6-methylpyridin-2-yl)-2-(isopropylamino)pyrimidin-4(3H)-one]
2 | > 6000 nM | 33.7 nM | 39.7 nM | – | Cc1nc(-c2cnc(NC(C)C)n(C)c2=O)ccc1Cc1c[nH]c2ncccc12 [Example 7, 5-(5-((1H-pyrrolo[2,3-b]pyridin-3-yl)methyl)-6-methylpyridin-2-yl)-2-(isopropylamino)-3-methylpyrimidin-4(3H)-one]
3 | > 6000 nM | 38.6 nM | 46.8 nM | – | Cc1nc(-c2cnc3n(c2=O)CCCN3C)ccc1Cc1c[nH]c2ncc(Cl)cc12 [Example 13, 3-(5-((5-chloro-1H-pyrrolo[2,3-b]pyridin-3-yl)methyl)-6-methylpyridin-2-yl)-9-methyl-6,7,8,9-tetrahydro-4H-pyrimido[1,2-a]pyrimidin-4-one]
4 | > 18000 nM | 105 nM | 96.7 nM | – | Cc1nc(-c2cnc3n(c2=O)CCCN3C)ccc1Cc1c[nH]c2ncccc12 [Example 14, 3-(5-((1H-pyrrolo[2,3-b]pyridin-3-yl)methyl)-6-methylpyridin-2-yl)-9-methyl-6,7,8,9-tetrahydro-4H-pyrimido[1,2-a]pyrimidin-4-one]
5 | > 2000 nM | 83.3 nM | 91.3 nM | – | Cc1nc(-c2cnc3n(c2=O)CCC(C)N3C)ccc1Cc1c[nH]c2ncc(Cl)cc12 (stereo not drawn) [Example 15, 3-(5-((5-chloro-1H-pyrrolo[2,3-b]pyridin-3-yl)methyl)-6-methylpyridin-2-yl)-8,9-dimethyl-6,7,8,9-tetrahydro-4H-pyrimido[1,2-a]pyrimidin-4-one]
6 | 1030 nM | 71.8 nM | 68.6 nM | – | CCN1CCCn2c1ncc(-c1ccc(Cc3c[nH]c4ncc(Cl)cc34)c(C)n1)c2=O [Example 16, 3-(5-((5-chloro-1H-pyrrolo[2,3-b]pyridin-3-yl)methyl)-6-methylpyridin-2-yl)-9-ethyl-6,7,8,9-tetrahydro-4H-pyrimido[1,2-a]pyrimidin-4-one]
7 | 57.2 nM | – | 6.3 nM | 5 nM | CCN1CCCn2c1ncc(-c1ccc(Cc3c[nH]c4ncc(-c5cnn(C)c5)cc34)c(C)n1)c2=O [Example 17]
8 | 447 nM | 4.9 nM | 5 nM | – | Cc1nc(-c2cnc3n(c2=O)CCCN3C)ccc1Cc1c[nH]c2ncc(-c3cnn(C)c3)cc12 [Example 18, 9-methyl-3-(6-methyl-5-((5-(1-methyl-1H-pyrazol-4-yl)-1H-pyrrolo[2,3-b]pyridin-3-yl)methyl)pyridin-2-yl)-6,7,8,9-tetrahydro-4H-pyrimido[1,2-a]pyrimidin-4-one]
9 | > 18000 nM | 106 nM | 92.2 nM | – | Cc1nc(-c2cnc3n(c2=O)CCCN3C)ccc1Cc1c[nH]c2ncc(F)cc12 [Example 20, 3-(5-((5-fluoro-1H-pyrrolo[2,3-b]pyridin-3-yl)methyl)-6-methylpyridin-2-yl)-9-methyl-6,7,8,9-tetrahydro-4H-pyrimido[1,2-a]pyrimidin-4-one]
10 | > 18000 nM | 45.6 nM | 54 nM | – | Cc1cnc2[nH]cc(Cc3ccc(-c4cnc5n(c4=O)CCCN5C)nc3C)c2c1 [Example 21, 9-methyl-3-(6-methyl-5-((5-methyl-1H-pyrrolo[2,3-b]pyridin-3-yl)methyl)pyridin-2-yl)-6,7,8,9-tetrahydro-4H-pyrimido[1,2-a]pyrimidin-4-one]
11 | > 2000 nM | 39.1 nM | 48 nM | – | COc1cnc2[nH]cc(Cc3ccc(-c4cnc5n(c4=O)CCCN5C)nc3C)c2c1 [Example 22, 3-(5-((5-methoxy-1H-pyrrolo[2,3-b]pyridin-3-yl)methyl)-6-methylpyridin-2-yl)-9-methyl-6,7,8,9-tetrahydro-4H-pyrimido[1,2-a]pyrimidin-4-one]
12 | > 6000 nM | 131 nM | 140 nM | – | Cc1nc(-c2cnc3n(c2=O)CCCN3C)ccc1Cc1c[nH]c2ncc(O)cc12 [Example 23]
